Measurements from US20050209151A1, “Use of peptides” (priority 1999, published 2005).
Where no end group is shown, it is not given here.

Experiments:
[1] = system: β-endorphin concentration in blood; assay: β-endorphin concentration in blood after intraventricular administration of PrRP-31; assay type: in vivo, Wistar rats; conditions: PrRP-31 1, 3 or 10 nmol intraventricular
Procedure: (§1) Adult male Wistar rats (body weight 350 to […] at surgery) were anesthetized with intraperitoneal administration of 50 mg/kg pentobarbital and immobilized in stereotaxic instruments. The incisor bar was set 3.3 mm below the interaural line. The skull was exposed, and a hole was drilled with a dental drill to implant a guide cannula AG-12 (inside diameter of 0.4 mm, outside diameter of 0.5 mm, by Eicom) in the third ventricle. Anchor screws were implanted in four surrounding locations. The tip of the stainless steel guide cannula AG-12 was inserted into position in the upper part of the third ventricle. The stereotaxic coordinates were AP: +7.1 mm, L: 0.0 mm, H: +2.0 mm, from the interaural line, according to the atlas of Paxinos and Watson (1986). The guide cannula was secured to the skull with instant adhesive, dental cement, and the anchor screws. A stainless-steel dummy cannula AD-12 (0.35 mm outside diameter, by Eicom) was then inserted into the guide cannula and secured with a cap nut (by Eicom). The rats were post-operatively housed in individual cages.
(§2) The animals were allowed to recover for about 1 week after the implantation of the guide cannulas, and blood samples were taken as they were allowed to move freely. The rats were then anesthetized with intraperitoneal administration of 50 mg/kg pentobarbital. […]

[2] = system: ACTH concentration in blood; assay: ACTH concentration in blood after intraventricular administration of PrRP-31; assay type: in vivo, Wistar rats; conditions: PrRP-31 1, 3 or 10 nmol intraventricular
Procedure: as §1, §2

[3] = plasma radioimmunoassay, 0-60 min

“PrRP-31: amide form of the peptide consisting of the amino acid sequence in SEQ ID NO. 32 (SRTHRHSMEIRTPDINPAWYASRGIRPVGRF-NH2)” was tested, and the “time of peak β-endorphin concentration in blood after dosing” value [1] was 15 min, the “β-endorphin concentration in blood compared to the control group” value [1, 3] was “higher concentration-dependent increases” and the “time of peak ACTH concentration in blood after dosing” value [2] was 15 min. The “ACTH concentration in blood compared to the control group” value [2, 3] was “higher concentration-dependent increases”.
